Data reported in patent US6420121B1, “Prevention of cell migration initiation with CMV US28 receptor antagonists” (Oregon Health Sciences University, priority 1998, dated 2002).
“Also recorded” adds a separate entry of the source.

Columns and labels:
HCMV infected SMCs = test: HCMV-induced SMC migration assay (migration chamber); type: cell-based; conditions: for inhibition of HCMV-induced SMC migration: SMCs infected with HCMV, FIG. 7 and FIG. 9
Excerpt: The present invention provides an assay for determining therapeutic activity of US28 receptor antagonists, comprising (a) obtaining and isolating smooth muscle cells into a first chamber of a migration device, wherein the first migration chamber comprises growth media chambers and is defined by a first side of a membrane and chamber walls, and wherein the migration device comprises a second chamber defined by the second side of the membrane and having an enclosed space; (b) infecting the smooth muscle cells with human cytomegalovirus (HCVM) containing a gene encoding the US28 receptor; (c) adding a candidate therapeutic agent to the first chamber; and (d) determining the amount of cellular migration into the second chamber, whereby inhibition of cellular migration of infected smooth muscle cells indicates therapeutic activity. Preferably, the smooth muscle cells are isolated from pulmonary arteries. Preferably, the membrane has a pore size of from about 2 to about 10 microns. Most preferably, the membrane pore size is about 3 microns. Preferably the amount of cellular migration is determined by an assay for counting the number of smooth muscle cells in the second chamber wherein the assay for counting the number of smooth muscle cells is selected from the group consisting of microscopic cell counting per unit area, radiolabeling the smooth muscle cells and counting radioactivity in the second chamber, attaching a fluorescent probe to the smooth muscle cells and measuring fluorescence within the second chamber, and combinations thereof.
SMCs are cultured in the upper chamber and infected with HCMV (preferably at or near MOI11). Only cells that are infected will migrate through a filter (preferably 3 micron) to the lower chamber. The cells in the lower chamber are counted by microscopy or labeled with a radioactive or fluorescent label.
The present invention provides an assay for determining therapeutic activity of US28 receptor antagonists, comprising (a) obtaining and isolating smooth muscle cells into a first chamber of a migration device, wherein the first migration chamber comprises growth media chambers and is defined by a first side of a membrane and chamber walls, and wherein the migration device comprises a second chamber defined by the second side of the membrane and having an enclosed space; (b) infecting the smooth muscle cells with human cytomegalovirus (HCVM) containing a gene encoding the US28 receptor; (c) adding a candidate therapeutic agent to the first chamber; and (d) determining the amount of cellular migration into the second chamber, whereby inhibition of cellular migration of infected smooth muscle cells indicates therapeutic activity. Preferably, the smooth muscle cells are isolated from pulmonary arteries. […]

[1] = test system: US28 transfected smooth muscle cell; test: US28 SMC migration with PTK pathway inhibitors (FIG. 15); type: cell-based

Molecule: C[C@@H]1C[C@@H]([C@H](O)CC2CC(=O)NC(=O)C2)C(=O)[C@@H](C)C1 [cyclohexamide]
- inhibition of HCMV-induced SMC migration (HCMV infected SMCs): blocked

Molecule: O=C(O)P(=O)(O)O [foscarnet]
- inhibition of HCMV-induced SMC migration (HCMV infected SMCs): did not inhibit SMC migration; also recorded: did not inhibit migration of infected smooth muscle cells

Molecule: CO[C@H]1[C@@H](OC)C[C@H](C)[C@@H](OC)C2=CC(=O)C=C(NC(=O)/C(C)=C/C=C\[C@H](OC)[C@@H](OC(N)=O)/C(C)=C/[C@@H]1C)C2=O [herbimycin A, Herbimycin A]
- inhibition of US28 SMC migration [1]: effective in inhibiting US28 transfected smooth muscle cell migration

Molecule: PDGF
- induction of cell migration in SMCs (HCMV infected SMCs; SMCs treated with PDGF, compared with HCMV infection, FIG. 7): did not cause cell migration in SMCs to nearly the extent as HCMV infection

Molecule: Pertussis toxin
- inhibition of US28 SMC migration [1]: had no effect

B1: RANTES: C-C chemokine, US28 receptor ligand (protein, UniProt P13501 24-91, looked up)
C-C motif chemokine 5: SPYSSDTTPCCFAYIARPLPRAHIKEYFYTSGKCSNPAVVFVTRKNRQVCANPEKKWVREYINSLEMS
- SMC migration on addition of chemokine (HCMV infected SMCs; HCMV-GFP-infected SMCs, FIG. 12): increased SMC migration in a dose-dependent manner
